According to patent US9845330B2, “6-nitro-2,3-dihydroimidazo[2,1-b]oxazoles and a process for the preparation thereof” (priority 2013, dated 2017):
Converted amounts (≈) assume the structure as drawn.

Experiments:
[1] = test system: M. tuberculosis MDR (resistant to isoniazid and rifampicin); assay: microbe, parasite or virus in culture; assay type: cell-based; details: Mycobacterium tuberculosis, 504 h, read-out: MIC M. tb MDR
[2] = test system: M. tuberculosis XDR (resistant to isoniazid, rifampicin, amikacin and moxifloxacin); assay: microbe, parasite or virus in culture; assay type: cell-based; details: Mycobacterium tuberculosis, 504 h, read-out: MIC M. tb XDR

Structure (SMILES)	MIC [1] [µg/mL]	MIC [2] [µg/mL]
CC(C)c1ccc(OCc2cn(-c3cccc(OC[C@@]4(C)Cn5cc([N+](=O)[O-])nc5O4)c3)nn2)cc1 [IA38]	4 (≈ 8.15 µM)	4 (≈ 8.15 µM)
C[C@]1(COc2ccccc2-n2cc(COc3ccc(OC(F)(F)F)cc3)nn2)Cn2cc([N+](=O)[O-])nc2O1 [IA39]	1 (≈ 1.88 µM)	1 (≈ 1.88 µM)
C[C@]1(COc2ccccc2-n2cc(COc3ccc(F)cc3)nn2)Cn2cc([N+](=O)[O-])nc2O1 [IA40]	4 (≈ 8.58 µM)	4 (≈ 8.58 µM)
C[C@]1(COc2ccccc2-n2cc(COc3ccc(C(F)(F)F)cc3)nn2)Cn2cc([N+](=O)[O-])nc2O1 [IA41]	2 (≈ 3.87 µM)	2 (≈ 3.87 µM)
C[C@]1(COc2ccccc2-n2cc(COc3ccccc3F)nn2)Cn2cc([N+](=O)[O-])nc2O1 [IA42]	2 (≈ 4.29 µM)	2 (≈ 4.29 µM)
C[C@]1(COc2ccc(-n3nnnc3-c3ccccc3)cc2)Cn2cc([N+](=O)[O-])nc2O1 [IB1, (R)-2-{4-[5-phenyl-1H-tetrazol-1-yl]phenoxymethyl}-2,3-dihydro-2-methyl-6-nitroimidazo[2,1-b]oxazole]	2 (≈ 4.77 µM)	2 (≈ 4.77 µM)
C[C@]1(COc2ccc(-n3nnnc3-c3ccc(OC(F)(F)F)cc3)cc2)Cn2cc([N+](=O)[O-])nc2O1 [IB2, (R)-2-{4-[5-(4-trifluoromethoxyphenyl)-1H-tetrazol-1-yl]phenoxymethyl}-2,3-dihydro-2-methyl-6-nitroimidazo[2,1-b]oxazole]	2 (≈ 3.97 µM)	2 (≈ 3.97 µM)
Cc1ccc(-c2nnnn2-c2ccc(OC[C@@]3(C)Cn4cc([N+](=O)[O-])nc4O3)cc2)cc1 [IB3, (R)-2-{4-[5-(4-methylphenyl)-1H-tetrazol-1-yl]phenoxymethyl}-2,3-dihydro-2-methyl-6-nitroimidazo[2,1-b]oxazole]	4 (≈ 9.23 µM)	4 (≈ 9.23 µM)
C[C@]1(COc2ccc(-n3nnnc3-c3ccc(F)cc3)cc2)Cn2cc([N+](=O)[O-])nc2O1 [IB4, (R)-2-{4-[5-(4-fluorophenyl)-1H-tetrazol-1-yl]phenoxymethyl}-2,3-dihydro-2-methyl-6-nitroimidazo[2,1-b]oxazole]	4 (≈ 9.15 µM)	4 (≈ 9.15 µM)
C[C@]1(COc2ccc(-n3nnnc3-c3ccc(C(F)(F)F)cc3)cc2)Cn2cc([N+](=O)[O-])nc2O1 [IB5, (R)-2-{4-[5-(4-trifluoromethylphenyl)-1H-tetrazol-1-yl]phenoxymethyl}-2,3-dihydro-2-methyl-6-nitroimidazo[2,1-b]oxazole]	1 (≈ 2.05 µM)	1 (≈ 2.05 µM)
CCc1ccc(-c2nnnn2-c2ccc(OC[C@@]3(C)Cn4cc([N+](=O)[O-])nc4O3)cc2)cc1 [IB6, (R)-2-{4-[5-(4-ethylphenyl)-1H-tetrazol-1-yl]phenoxymethyl}-2,3-dihydro-2-methyl-6-nitroimidazo[2,1-b]oxazole]	2 (≈ 4.47 µM)	2 (≈ 4.47 µM)
C[C@]1(COc2ccc(-n3nnnc3Oc3ccc(F)cc3)cc2)Cn2cc([N+](=O)[O-])nc2O1 [IB7, (R)-2-{4-[5-(4-fluorophenoxy)-1H-tetrazol-1-yl]phenoxymethyl}-2,3-dihydro-2-methyl-6-nitroimidazo[2,1-b]oxazole]	2 (≈ 4.41 µM)	2 (≈ 4.41 µM)
C[C@]1(COc2ccc(-n3nnnc3Oc3ccc(C(F)(F)F)cc3)cc2)Cn2cc([N+](=O)[O-])nc2O1 [IB8, (R)-2-{4-[5-(4-trifluoromethylphenoxy)-1H-tetrazol-1-yl]phenoxymethyl}-2,3-dihydro-2-methyl-6-nitroimidazo[2,1-b]oxazole]	4 (≈ 7.95 µM)	4 (≈ 7.95 µM)
Cc1ccc(Oc2nnnn2-c2ccc(OC[C@@]3(C)Cn4cc([N+](=O)[O-])nc4O3)cc2)cc1 [IB9, (R)-2-{4-[5-(4-methylphenoxy)-1H-tetrazol-1-yl]phenoxymethyl}-2,3-dihydro-2-methyl-6-nitroimidazo[2,1-b]oxazole]	4 (≈ 8.9 µM)	4 (≈ 8.9 µM)
C[C@]1(COc2ccc(-n3nnnc3Oc3ccc(OC(F)(F)F)cc3)cc2)Cn2cc([N+](=O)[O-])nc2O1 [IB10, (R)-2-{4-[5-(4-trifluoromethoxyphenoxy)-1H-tetrazol-1-yl]phenoxymethyl}-2,3-dihydro-2-methyl-6-nitroimidazo[2,1-b]oxazole]	1 (≈ 1.93 µM)	1 (≈ 1.93 µM)
C[C@]1(COc2ccc(-c3cc(-c4ccccc4)on3)cc2)Cn2cc([N+](=O)[O-])nc2O1 [IC1, (R)-2-{4-[5-phenylisoxazol-3-yl]phenoxymethyl}-2,3-dihydro-2-methyl-6-nitroimidazo[2,1-b]oxazole]	0.12 (≈ 0.287 µM)	0.12 (≈ 0.287 µM)
CCc1ccc(-c2cc(-c3ccc(OC[C@@]4(C)Cn5cc([N+](=O)[O-])nc5O4)cc3)no2)cc1 [IC2, (R)-2-{4-[5-(4-ethylphenyl)isoxazol-3-yl]phenoxymethyl}-2,3-dihydro-2-methyl-6-nitroimidazo[2,1-b]oxazole]	2 (≈ 4.48 µM)	2 (≈ 4.48 µM)

Structure (SMILES)	MIC [1] [µg/mL]	MIC [2] [µg/mL]
C[C@]1(COc2ccc(-c3cc(-c4ccc(F)cc4F)on3)cc2)Cn2cc([N+](=O)[O-])nc2O1 [IC3, (R)-2-{4-[5-(2,4-difluorophenyl)isoxazol-3-yl]phenoxymethyl}-2,3-dihydro-2-methyl-6-nitroimidazo[2,1-b]oxazole]	0.25 (≈ 0.55 µM)	0.25 (≈ 0.55 µM)
C[C@]1(COc2ccc(-c3cc(-c4ccccc4F)on3)cc2)Cn2cc([N+](=O)[O-])nc2O1 [IC4, (R)-2-{4-[5-(2-fluorophenyl)isoxazol-3-yl]phenoxymethyl}-2,3-dihydro-2-methyl-6-nitroimidazo[2,1-b]oxazole]	2 (≈ 4.58 µM)	2 (≈ 4.58 µM)
C[C@]1(COc2ccc(-c3cc(-c4ccc(C(F)(F)F)cc4)on3)cc2)Cn2cc([N+](=O)[O-])nc2O1 [IC5, (R)-2-{4-[5-(4-trifluoromethylphenyl)isoxazol-3-yl]phenoxymethyl}-2,3-dihydro-2-methyl-6-nitroimidazo[2,1-b]oxazole]	1 (≈ 2.06 µM)	1 (≈ 2.06 µM)
Cc1ccc(-c2cc(-c3ccc(OC[C@@]4(C)Cn5cc([N+](=O)[O-])nc5O4)cc3)no2)cc1 [IC6, (R)-2-{4-[5-(4-methylphenyl)isoxazol-3-yl]phenoxymethyl}-2,3-dihydro-2-methyl-6-nitroimidazo[2,1-b]oxazole]	1 (≈ 2.31 µM)	1 (≈ 2.31 µM)
COc1ccc(-c2cc(-c3ccc(OC[C@@]4(C)Cn5cc([N+](=O)[O-])nc5O4)cc3)no2)cc1 [IC7, (R)-2-{4-[5-(4-methoxyphenyl)isoxazol-3-yl]phenoxymethyl}-2,3-dihydro-2-methyl-6-nitroimidazo[2,1-b]oxazole]	1 (≈ 2.23 µM)	1 (≈ 2.23 µM)
C[C@]1(COc2ccc(-c3cc(-c4cccc(F)c4)on3)cc2)Cn2cc([N+](=O)[O-])nc2O1 [IC8, (R)-2-{4-[5-(3-fluorophenyl)isoxazol-3-yl]phenoxymethyl}-2,3-dihydro-2-methyl-6-nitroimidazo[2,1-b]oxazole]	2 (≈ 4.58 µM)	2 (≈ 4.58 µM)
C[C@]1(COc2ccc(-c3cc(-c4ccccn4)on3)cc2)Cn2cc([N+](=O)[O-])nc2O1 [IC9, (R)-2-{4-[5-(pyridin-2-yl)isoxazol-3-yl]phenoxymethyl}-2,3-dihydro-2-methyl-6-nitroimidazo[2,1-b]oxazole]	2 (≈ 4.77 µM)	2 (≈ 4.77 µM)
C[C@]1(COc2ccc(-c3cc(-c4ccc(OC(F)(F)F)cc4)on3)cc2)Cn2cc([N+](=O)[O-])nc2O1 [IC10, (R)-2-{4-[5-(4-trifluoromethoxyphenyl)isoxazol-3-yl]phenoxymethyl}-2,3-dihydro-2-methyl-6-nitroimidazo[2,1-b]oxazole]	0.5 (≈ 0.995 µM)	0.5 (≈ 0.995 µM)
CCCCCc1cc(-c2ccc(OC[C@@]3(C)Cn4cc([N+](=O)[O-])nc4O3)cc2)no1 [IC11, (R)-2-{4-[5-pentylisoxazol-3-yl]phenoxymethyl}-2,3-dihydro-2-methyl-6-nitroimidazo[2,1-b]oxazole]	32 (≈ 77.6 µM)	32 (≈ 77.6 µM)
CCCCCCCc1cc(-c2ccc(OC[C@@]3(C)Cn4cc([N+](=O)[O-])nc4O3)cc2)no1 [IC12, (R)-2-{4-[5-heptylisoxazol-3-yl]phenoxymethyl}-2,3-dihydro-2-methyl-6-nitroimidazo[2,1-b]oxazole]	2 (≈ 4.54 µM)	2 (≈ 4.54 µM)
C[C@]1(COc2ccc(-c3cc(COc4ccc(OC(F)(F)F)cc4)on3)cc2)Cn2cc([N+](=O)[O-])nc2O1 [IC13, (R)-2-{4-[5-(4-trifluoromethoxyphenoxymethyl)isoxazol-3-yl]phenoxymethyl}-2,3-dihydro-2-methyl-6-nitroimidazo[2,1-b]oxazole]	0.12 (≈ 0.225 µM)	0.12 (≈ 0.225 µM)
C[C@]1(COc2ccc(-c3cc(COc4ccc(F)cc4)on3)cc2)Cn2cc([N+](=O)[O-])nc2O1 [IC14, (R)-2-{4-[5-(4-fluorophenoxymethyl)isoxazol-3-yl]phenoxymethyl}-2,3-dihydro-2-methyl-6-nitroimidazo[2,1-b]oxazole]	0.12 (≈ 0.257 µM)	0.12 (≈ 0.257 µM)
C[C@]1(COc2ccc(-c3cc(COc4ccc(C(F)(F)F)cc4)on3)cc2)Cn2cc([N+](=O)[O-])nc2O1 [IC15, (R)-2-{4-[5-(4-trifluoromethylphenoxymethyl)isoxazol-3-yl]phenoxymethyl}-2,3-dihydro-2-methyl-6-nitroimidazo[2,1-b]oxazole]	0.5 (≈ 0.968 µM)	0.5 (≈ 0.968 µM)
C[C@]1(COc2ccc(-c3cc(COc4ccccc4F)on3)cc2)Cn2cc([N+](=O)[O-])nc2O1 [IC16, (R)-2-{4-[5-(2-fluorophenoxymethyl)isoxazol-3-yl]phenoxymethyl}-2,3-dihydro-2-methyl-6-nitroimidazo[2,1-b]oxazole]	0.5 (≈ 1.07 µM)	0.5 (≈ 1.07 µM)
Cc1ccc(OCc2cc(-c3ccc(OC[C@@]4(C)Cn5cc([N+](=O)[O-])nc5O4)cc3)no2)cc1 [IC17, (R)-2-{4-[5-(4-methylphenoxymethyl)isoxazol-3-yl]phenoxymethyl}-2,3-dihydro-2-methyl-6-nitroimidazo[2,1-b]oxazole]	0.5 (≈ 1.08 µM)	0.5 (≈ 1.08 µM)
CC(C)c1ccc(OCc2cc(-c3ccc(OC[C@@]4(C)Cn5cc([N+](=O)[O-])nc5O4)cc3)no2)cc1 [IC18, (R)-2-{4-[5-(4-isopropylphenoxymethyl)isoxazol-3-yl]phenoxymethyl}-2,3-dihydro-2-methyl-6-nitroimidazo[2,1-b]oxazole]	0.25 (≈ 0.51 µM)	0.25 (≈ 0.51 µM)
